What all share (assay type): functional
What all share (details): read-out: ED50 (the source's name)

The subject of one assay is COLO 205. In words: Cytotoxicity against human COLO205 cells.
For the next assay, the system named is SK-MEL-5. In words: Cytotoxicity against human SK-MEL-5 cells.
The subject of the next assay is KB. In words: Cytotoxicity against human KB cells.

We go through two compounds from ChEMBL document CHEMBL1150100, “Bruceanols G and H cytotoxic quassinoids from Brucea antidysenterica” (1995).

In the case of `COC(=O)[C@@]12OC[C@]34[C@H]([C@@H](O)[C@@H]1O)[C@@]1(C)[C@H](O)C(=O)C[C@@H](C)[C@@H]1C[C@H]3OC(=O)[C@H](OC(=O)/C=C(\C)C(C)(C)OC(C)=O)[C@@H]24` [BRUCEANOL G], the EC50 in the assay on COLO 205 was 440 nM; in the assay with SK-MEL-5 it was 4080 nM; in the assay on KB, 550 nM.
For the compound `COC(=O)[C@@]12OC[C@]34[C@H]([C@@H](O)[C@@H]1O)[C@@]1(C)C(=O)[C@@H](O)C[C@@H](C)[C@@H]1C[C@H]3OC(=O)[C@H](OC(=O)/C=C(\C)C(C)C)[C@@H]24` [BRUCEANOL H], the EC50 in the assay with SK-MEL-5 was 6370 nM.
